From patent US20200399318A1, “PEPTIDE INHIBITORS OF PHOSPHOGLYCERATE MUTASE AND METHODS OF USE” (priority 2016, published 2020)
Where a SMILES comes first, the peptide text is derived from it. Bridges are numbered along the chain shown (N, C = ends). [ ]: non-standard residue; d: D form.

How the values were obtained:
[1] = biological target: B. malayi iPGM (Brugia malayi, UniProt Q4VWF8); test: biochemical
[2] = biological target: E. coli iPGM (Escherichia coli, UniProt P37689); test: biochemical
[3] = biological target: O. volvulus iPGM (Onchocerca volvulus, UniProt I6LDA6); test: biochemical
[4] = tested on: D. immitis iPGM; type: biochemical, Dirofilaria immitis
[5] = read-out: B. malayi iPGM Max Inhibition
[6] = read-out: E. coli iPGM Max Inhibition
[7] = read-out: O. volvulus iPGM Max Inhibition

B. malayi iPGM, sequence (Q4VWF8 whole entry, looked up): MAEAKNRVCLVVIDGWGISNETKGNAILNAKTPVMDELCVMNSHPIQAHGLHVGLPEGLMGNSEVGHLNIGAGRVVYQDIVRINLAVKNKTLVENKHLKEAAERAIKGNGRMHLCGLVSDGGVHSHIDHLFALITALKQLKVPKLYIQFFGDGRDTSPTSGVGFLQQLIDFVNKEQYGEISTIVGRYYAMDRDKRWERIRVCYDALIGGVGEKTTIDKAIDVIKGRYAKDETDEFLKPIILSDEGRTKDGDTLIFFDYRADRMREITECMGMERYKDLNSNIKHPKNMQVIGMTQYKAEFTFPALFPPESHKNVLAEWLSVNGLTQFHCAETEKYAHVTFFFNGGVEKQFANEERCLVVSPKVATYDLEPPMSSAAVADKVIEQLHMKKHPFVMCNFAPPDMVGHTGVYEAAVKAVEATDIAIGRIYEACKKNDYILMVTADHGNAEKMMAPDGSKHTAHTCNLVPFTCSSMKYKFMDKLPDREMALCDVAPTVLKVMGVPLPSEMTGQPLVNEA
O. volvulus iPGM, sequence (I6LDA6 whole entry, looked up): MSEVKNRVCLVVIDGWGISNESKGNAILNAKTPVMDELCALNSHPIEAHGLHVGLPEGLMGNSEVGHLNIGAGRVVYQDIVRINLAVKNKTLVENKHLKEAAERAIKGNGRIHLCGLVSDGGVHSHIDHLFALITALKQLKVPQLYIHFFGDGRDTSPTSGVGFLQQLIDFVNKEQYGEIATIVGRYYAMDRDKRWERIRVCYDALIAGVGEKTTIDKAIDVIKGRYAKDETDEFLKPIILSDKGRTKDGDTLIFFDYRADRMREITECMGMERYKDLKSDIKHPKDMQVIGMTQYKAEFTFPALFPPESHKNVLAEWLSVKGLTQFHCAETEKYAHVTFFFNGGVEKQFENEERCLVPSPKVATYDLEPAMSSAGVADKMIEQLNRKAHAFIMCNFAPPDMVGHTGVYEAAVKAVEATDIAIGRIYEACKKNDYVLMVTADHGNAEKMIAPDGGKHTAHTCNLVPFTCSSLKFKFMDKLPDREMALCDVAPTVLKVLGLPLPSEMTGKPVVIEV
E. coli iPGM, sequence (P37689 whole entry, looked up): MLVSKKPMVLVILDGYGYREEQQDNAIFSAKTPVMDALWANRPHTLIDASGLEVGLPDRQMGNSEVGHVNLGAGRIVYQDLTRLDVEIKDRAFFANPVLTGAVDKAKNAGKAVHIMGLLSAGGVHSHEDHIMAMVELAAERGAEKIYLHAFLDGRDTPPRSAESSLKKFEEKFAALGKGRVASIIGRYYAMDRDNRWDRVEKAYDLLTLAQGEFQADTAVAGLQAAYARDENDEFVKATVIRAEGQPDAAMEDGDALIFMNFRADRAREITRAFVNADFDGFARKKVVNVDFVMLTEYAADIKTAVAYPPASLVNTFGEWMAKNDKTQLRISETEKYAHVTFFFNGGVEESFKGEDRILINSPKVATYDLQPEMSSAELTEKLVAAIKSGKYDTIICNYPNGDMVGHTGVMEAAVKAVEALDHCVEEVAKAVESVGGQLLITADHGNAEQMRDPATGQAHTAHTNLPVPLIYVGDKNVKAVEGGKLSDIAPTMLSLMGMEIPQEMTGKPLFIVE

Compound | Emax [1, 5] | inhibition at 0.0005 µM [1, 5] | Emax [2, 6] | inhibition at 0.0005 µM [2, 6] | Emax [3, 7] | inhibition at 0.0005 µM [3, 7] | pIC50 B. malayi iPGM [1] | E. coli iPGM PIC50, M [2] | O. volvulus iPGM PIC50, M [3] | D. immitis iPGM Max Inhibition [4] | pIC50 E. coli iPGM [2] | B. malayi iPGM PIC50, M [1]
CC(C)C[C@H](NC(=O)[C@H](Cc1ccc(O)cc1)NC(=O)[C@@H]1CSCC(=O)N[C@H](Cc2ccc(O)cc2)C(=O)N[C@@H](CC(=O)O)C(=O)N[C@@H](Cc2ccc(O)cc2)C(=O)N2CCC[C@H]2C(=O)NCC(=O)N[C@@H](CC(=O)O)C(=O)N[C@@H](Cc2ccc(O)cc2)C(=O)N1)C(=O)N[C@@H](Cc1ccc(O)cc1)C(=O)NCC(=O)N[C@H](C(=O)N[C@@H](CO)C(=O)NCC(N)=O)[C@@H](C)O [Ce-2S] | 97.7 ± 0.6% | 77.1 ± 7.5% | 105 ± 2.5% | 68.1 ± 8.9% | 97 ± 1.6% | 69.8 ± 9.3% | – | – | – | – | – | –
NC(=O)[C@H](Cc1ccc(O)cc1)NC(=O)[C@@H]1CSCC(=O)N[C@H](Cc2ccc(O)cc2)C(=O)N[C@@H](CC(=O)O)C(=O)N[C@@H](Cc2ccc(O)cc2)C(=O)N2CCC[C@H]2C(=O)NCC(=O)N[C@@H](CC(=O)O)C(=O)N[C@@H](Cc2ccc(O)cc2)C(=O)N1 [Ce-2f] ({CH2CO}-[dY]DYPGDYCY-NH2; thioether N-8) | 14.8% | – | 79.6% | – | -4.3% | – | – | – | – | – | – | –
CC(C)C[C@H](NC(=O)[C@H](Cc1ccc(O)cc1)NC(=O)[C@@H]1CSCC(=O)N[C@H](Cc2ccc(O)cc2)C(=O)N[C@@H](CC(=O)O)C(=O)N[C@@H](Cc2ccc(O)cc2)C(=O)N2CCC[C@H]2C(=O)NCC(=O)N[C@@H](CC(=O)O)C(=O)N[C@@H](Cc2c[nH]cn2)C(=O)N1)C(=O)N[C@@H](Cc1ccc(O)cc1)C(=O)NCC(=O)N[C@H](C(=O)N[C@@H](CS)C(=O)NCC(N)=O)[C@@H](C)O [Ce-1] | 94 ± 3.4% | – | 96.5 ± 4.2% | – | 95.4 ± 2.6% | – | – | – | – | – | – | –
C[C@@H](O)[C@H](NC(=O)[C@H](CO)NC(=O)[C@@H]1CSCC(=O)N[C@H](Cc2ccc(O)cc2)C(=O)N2CCC[C@H]2C(=O)N[C@@H](CCC(=O)O)C(=O)N[C@@H](Cc2c[nH]c3ccccc23)C(=O)N2CCC[C@H]2C(=O)N[C@@H](CC(N)=O)C(=O)N1)C(=O)N[C@@H](CS)C(=O)NCC(N)=O [Bm-6] ({CH2CO}-[dY]PEWPNCSTCG-NH2; thioether N-7) | 86.8 ± 0.6% | – | 77.4 ± 4.3% | – | 86 ± 3.2% | – | 6.16 | 5.55 ± 0.07 M | 6.08 ± 0.53 M | −90.2 ± 1.2 | – | –
CC[C@H](C)[C@@H]1NC(=O)[C@H](CCCNC(=N)N)NC(=O)[C@H](Cc2ccccc2)NC(=O)[C@@H]2CCCN2C(=O)[C@H](CC(N)=O)NC(=O)[C@H](C)NC(=O)[C@H](CC(C)C)NC(=O)[C@H]([C@@H](C)O)NC(=O)[C@H]([C@@H](C)O)NC(=O)[C@H](Cc2ccc(O)cc2)NC(=O)CSC[C@@H](C(=O)NCC(N)=O)NC(=O)[C@H](Cc2c[nH]cn2)NC(=O)[C@H](CC(C)C)NC1=O [Ce-4] ({CH2CO}-YTTLANPFRILHCG-NH2; thioether N-13) | 2.9 ± 3.3% | – | 44.3 ± 1.9% | – | 23 ± 35.7% | – | – | – | 5.37 ± 0.14 M | −22.1 ± 35.5 | – | –
CC(C)C[C@H](NC(=O)[C@H](Cc1ccc(O)cc1)NC(=O)[C@@H]1CSCC(=O)N[C@H](Cc2ccc(O)cc2)C(=O)N[C@@H](CC(=O)O)C(=O)N[C@@H](Cc2ccc(O)cc2)C(=O)N2CCC[C@H]2C(=O)NCC(=O)N[C@@H](CC(=O)O)C(=O)N[C@@H](Cc2ccc(O)cc2)C(=O)N1)C(=O)N[C@@H](Cc1ccc(O)cc1)C(=O)NCC(N)=O [Ce-2c] | 88.2% | – | 89.1% | – | 78.4% | – | – | – | – | – | – | –
CC[C@H](C)[C@@H]1NC(=O)[C@H](CCC(=O)O)NC(=O)[C@@H]2CCCN2C(=O)[C@H](C)NC(=O)[C@H](CC(N)=O)NC(=O)[C@@H]2CCCN2C(=O)[C@H](Cc2c[nH]c3ccccc23)NC(=O)[C@H](CO)NC(=O)[C@@H](Cc2ccc(O)cc2)NC(=O)CSC[C@@H](C(=O)N[C@@H](CS)C(=O)NCC(N)=O)NC(=O)[C@H](CCCCN)NC(=O)[C@H](Cc2c[nH]c3ccccc23)NC1=O [Bm-1] ({CH2CO}-[dY]SWPNAPEIWKCCG-NH2; thioether N-12) | 82.8 ± 0.9% | – | 60.6 ± 9% | – | 82.1 ± 5.4% | – | 5.89 | – | 5.88 ± 0.53 M | −85.9 ± 0.2 | 5.31 | –
CC[C@H](C)[C@@H]1NC(=O)[C@H](CCCNC(=N)N)NC(=O)[C@H](Cc2ccccc2)NC(=O)[C@@H]2CCCN2C(=O)[C@H](CC(N)=O)NC(=O)[C@H](C)NC(=O)[C@H](CC(C)C)NC(=O)[C@H]([C@@H](C)O)NC(=O)[C@H]([C@@H](C)CC)NC(=O)[C@H](Cc2ccc(O)cc2)NC(=O)CSC[C@@H](C(=O)NCC(N)=O)NC(=O)[C@H](Cc2c[nH]cn2)NC(=O)[C@H](CC(C)C)NC1=O [Ce-3] ({CH2CO}-YITLANPFRILHCG-NH2; thioether N-13) | 13.3 ± 2% | – | 91.4 ± 1.3% | – | 22.9 ± 30.8% | – | – | 6.27 ± 0.10 M | 5.26 ± 0.18 M | −30.1 ± 32.2 | – | –
CC(C)C[C@H](NC(=O)[C@H](Cc1ccc(O)cc1)NC(=O)[C@@H]1CSCC(=O)N[C@H](Cc2ccc(O)cc2)C(=O)N[C@@H](CC(=O)O)C(=O)N[C@@H](Cc2ccc(O)cc2)C(=O)N2CCC[C@H]2C(=O)NCC(=O)N[C@@H](CC(=O)O)C(=O)N[C@@H](Cc2ccc(O)cc2)C(=O)N1)C(N)=O [Ce-2e] ({CH2CO}-[dY]DYPGDYCYL-NH2; thioether N-8) | 82.7 ± 6.1% | – | 94.5 ± 9% | – | 55.5 ± 1.4% | – | – | – | – | – | – | –
CC(=O)N[C@H](Cc1ccc(O)cc1)C(=O)N[C@@H](CC(=O)O)C(=O)N[C@@H](Cc1ccc(O)cc1)C(=O)N1CCC[C@H]1C(=O)NCC(=O)N[C@@H](CC(=O)O)C(=O)N[C@@H](Cc1ccc(O)cc1)C(=O)N[C@@H](CO)C(=O)N[C@@H](Cc1ccc(O)cc1)C(=O)N[C@@H](CC(C)C)C(=O)N[C@@H](Cc1ccc(O)cc1)C(=O)NCC(=O)N[C@H](C(=O)N[C@@H](CS)C(=O)NCC(N)=O)[C@@H](C)O [Ce-L2] (Ac-[dY]DYPGDYSYLYGTCG-NH2) | 48.2 ± 18.2% | – | 95.1 ± 5.2% | – | 40.2 ± 27.6% | – | – | – | – | −44 ± 22.6 | 5.88 | 4.89 ± 0.21 M
CC(C)C[C@@H]1NC(=O)[C@@H](Cc2ccc(O)cc2)NC(=O)CSC[C@@H](C(=O)N[C@@H](CO)C(=O)N[C@H](C(=O)N[C@@H](CS)C(=O)NCC(N)=O)[C@@H](C)O)NC(=O)[C@H](CC(N)=O)NC(=O)[C@@H]2CCCN2C(=O)[C@H](Cc2c[nH]c3ccccc23)NC(=O)[C@H](CC(=O)O)NC1=O [Bm-5] ({CH2CO}-[dY]LDWPNCSTCG-NH2; thioether N-7) | 84.7 ± 1.2% | – | 74.3 ± 9.5% | – | 83.1 ± 7.3% | – | 6.16 | 5.54 ± 0.20 M | 5.99 ± 0.69 M | −87.1 ± 3.2 | – | –
CC(C)C[C@H](NC(=O)[C@H](Cc1ccc(O)cc1)NC(=O)[C@@H]1CSCC(=O)N[C@H](Cc2ccc(O)cc2)C(=O)N[C@@H](CC(=O)O)C(=O)N[C@@H](Cc2ccc(O)cc2)C(=O)N2CCC[C@H]2C(=O)NCC(=O)N[C@@H](CC(=O)O)C(=O)N[C@@H](Cc2ccc(O)cc2)C(=O)N1)C(=O)N[C@@H](Cc1ccc(O)cc1)C(=O)NCC(=O)N[C@H](C(N)=O)[C@@H](C)O [Ce-2b] | 91.8 ± 5.4% | – | 95.3 ± 9% | – | 80.1 ± 2.1% | – | – | – | – | – | – | –
